Literature values as cited in US20070292393A1, “USE OF THYMOSIN ALPHA 1 FOR PREPARING A MEDICAMENT FOR THE TREATMENT OF STAGE IV MALIGNANT MELANOMA” (SIGMA-TAU INDUSTRIE FARMACEUTICHE RIUNITE S.P.A., priority 2006, published 2007).

Test system: metastatic melanoma

SMILES: CN(C)/N=N/c1[nH]cnc1C(N)=O [DTIC, Dacarbazine]
- effect of responses on patients' overall survival: no evidence
- actual overall responses to DTIC (recent publications (J Clin Oncol, ASCO 2004)): 5.5-6.8%
- duration of responses (responses short-lived): three to six
